Measured values as given in patent publication US9095138B2, “Isoxazoline insecticides” (E.I. du Pont de Nemours and Company, priority 2007, dated 2015).

What was measured:
[1] = test system: fall armyworm (Spodoptera frugiperda); test: Test B: control of fall armyworm on corn (maize) plant, foliar spray; type: in vivo; conditions: sprayed at 50 ppm; 1-day-old larvae on corn; replicated three times
Protocol: (§1) Test compounds were formulated using a solution containing 10% acetone, 90% water and 300 ppm X-77™ Spreader Lo-Foam Formula non-ionic surfactant containing alkylarylpolyoxyethylene, free fatty acids, glycols and isopropanol (Loveland Industries, Inc. Greeley, Colo., USA). The formulated compounds were applied in 1 mL of liquid through a SUJ2 atomizer nozzle with ⅛ JJ custom body (Spraying Systems Co. Wheaton, Ill., USA) positioned 1.27 cm (0.5 inches) above the top of each test unit. All experimental compounds in these tests were sprayed at 50 ppm, and the test was replicated three times. After spraying of the formulated test compound, each test unit was allowed to dry for 1 h and then a black, screened cap was placed on top. The test units were held for 6 days in a growth chamber at 25° C. and 70% relative humidity. Plant feeding damage was then visually assessed based on foliage consumed and a pest mortality rating was also counted and calculated for each test unit.
For evaluating control of fall armyworm (Spodoptera frugiperda) the test unit consisted of a small open container with a 4-5-day-old corn (maize) plant inside. This was pre-infested (using a core sampler) with 10-15 1-day-old larvae on a piece of insect diet. Test compounds were formulated and sprayed at 50 ppm as described for Test A and replicated three times. After spraying, the test units were maintained in a growth chamber and then the control efficacy was rated for each test unit as described for Test A.

[2] = test system: diamondback moth (Plutella xylostella); test: Test A: control of diamondback moth on radish plant, foliar spray; type: in vivo; conditions: sprayed at 50 ppm; neonate larvae on radish; assessed after 6 days; replicated three times
Text: For evaluating control of diamondback moth (Plutella xylostella) the test unit consisted of a small open container with a 12-14-day-old radish plant inside. This was pre-infested with about 50 neonate larvae that were dispensed into the test unit via corn-cob grits using a bazooka inoculator. The larvae moved onto the test plant after being dispensed into the test unit.
as §1

SMILES	control efficacy (feeding damage or mortality): very good to excellent levels [1]	control efficacy (feeding damage or mortality): very good to excellent levels [2]
CCC(CO)NC(=O)c1ccc(C2=NOC(c3cccc(C(F)(F)F)c3)(C(F)(F)F)C2)c2ccccc12 (mixture of isomers) [Compound 16]	20% or less feeding damage or 80% or more mortality	20% or less feeding damage or 80% or more mortality
CC(NC(=O)c1ccc(C2=NOC(c3cc(Cl)cc(C(F)(F)F)c3)(C(F)(F)F)C2)c2ccccc12)C(=O)O (mixture of isomers) [Compound 32]	20% or less feeding damage or 80% or more mortality	20% or less feeding damage or 80% or more mortality
O=C(NCC(Cl)CCCCl)c1ccc(C2=NOC(c3cc(Cl)cc(Cl)c3)(C(F)(F)F)C2)c2ccccc12 (mixture of isomers) [Compound 14]	20% or less feeding damage or 80% or more mortality	20% or less feeding damage or 80% or more mortality
O=C(NCCCSCC(F)(F)F)c1ccc(C2=NOC(c3cccc(C(F)(F)F)c3)(C(F)(F)F)C2)c2ccccc12 (racemic) [Compound 21]	20% or less feeding damage or 80% or more mortality	20% or less feeding damage or 80% or more mortality
O=C(NCC(F)(F)F)[C@H]1CCCN1C(=O)c1ccc(C2=NOC(c3cc(Cl)cc(Cl)c3)(C(F)(F)F)C2)c2ccccc12 (some centres unmarked) [Compound 102]	20% or less feeding damage or 80% or more mortality	20% or less feeding damage or 80% or more mortality
O=C(CNC(=O)c1ccc(C2=NOC(c3cc(Cl)cc(Cl)c3)(C(F)(F)F)C2)c2ccccc12)NC1CCCC1 (centres unmarked) [Compound 52]	20% or less feeding damage or 80% or more mortality	20% or less feeding damage or 80% or more mortality
O=C(NCC1CCCO1)c1ccc(C2=NOC(c3cc(C(F)(F)F)cc(C(F)(F)F)c3)(C(F)(F)F)C2)c2ccccc12 (centres unmarked) [Compound 27]	20% or less feeding damage or 80% or more mortality	20% or less feeding damage or 80% or more mortality
Cn1ccc2c(C(=O)NCC[S+](C)[O-])ccc(C3=NOC(c4cc(Cl)cc(Cl)c4)(C(F)(F)F)C3)c21 (centres unmarked) [Compound 111]	20% or less feeding damage or 80% or more mortality	20% or less feeding damage or 80% or more mortality
CC1(C)OCC(CNC(=O)c2ccc(C3=NOC(c4cccc(C(F)(F)F)c4)(C(F)(F)F)C3)c3ccccc23)O1 (centres unmarked) [Compound 19]	20% or less feeding damage or 80% or more mortality	20% or less feeding damage or 80% or more mortality
CC(NC(=O)c1ccc(C2=NOC(c3cc(Br)cc(C(F)(F)F)c3)(C(F)(F)F)C2)c2ccccc12)C(=O)O (mixture of isomers) [Compound 38]	20% or less feeding damage or 80% or more mortality	20% or less feeding damage or 80% or more mortality
O=C(CNC(=O)c1ccc(C2=NOC(c3cc(Cl)cc(Cl)c3)(C(F)(F)F)C2)c2ccccc12)NC1CCCCC1 (centres unmarked) [Compound 51]	20% or less feeding damage or 80% or more mortality	20% or less feeding damage or 80% or more mortality
O=C(NCC(=O)N1CCCC1C(F)(F)F)c1ccc(C2=NOC(c3cc(Cl)cc(Cl)c3)(C(F)(F)F)C2)c2ccccc12 (centres unmarked) [Compound 91]	20% or less feeding damage or 80% or more mortality	20% or less feeding damage or 80% or more mortality
O=C(CNC(=O)c1ccc(C2=NOC(c3cccc(OC(F)(F)F)c3)(C(F)(F)F)C2)c2ccccc12)NCC1CC1 (centres unmarked) [Compound 60]	20% or less feeding damage or 80% or more mortality	20% or less feeding damage or 80% or more mortality
O=C(NCCn1ccc(C(F)(F)F)n1)c1ccc(C2=NOC(c3cccc(C(F)(F)F)c3)(C(F)(F)F)C2)c2ccccc12 (centres unmarked) [Compound 17]	20% or less feeding damage or 80% or more mortality	20% or less feeding damage or 80% or more mortality
O=C(CNC(=O)c1ccc(C2=NOC(c3cccc(C(F)(F)F)c3)(C(F)(F)F)C2)c2ccccc12)NC1CC1 (centres unmarked) [Compound 54]	20% or less feeding damage or 80% or more mortality	20% or less feeding damage or 80% or more mortality
O=C(NCC1CCCO1)c1ccc(C2=NOC(c3cccc(C(F)(F)F)c3)(C(F)(F)F)C2)c2ccccc12 (centres unmarked) [Compound 20]	20% or less feeding damage or 80% or more mortality	20% or less feeding damage or 80% or more mortality
O=C(O)CNC(=O)c1ccc(C2=NOC(c3cc(C(F)(F)F)cc(C(F)(F)F)c3)(C(F)(F)F)C2)c2ccccc12 (racemic) [Compound 15]	20% or less feeding damage or 80% or more mortality	20% or less feeding damage or 80% or more mortality
O=C(NCCn1cncn1)c1ccc(C2=NOC(c3cccc(C(F)(F)F)c3)(C(F)(F)F)C2)c2ccccc12 (centres unmarked) [Compound 18]	20% or less feeding damage or 80% or more mortality	20% or less feeding damage or 80% or more mortality
O=C(CNC(=O)c1ccc(C2=NOC(c3cccc(Br)c3)(C(F)(F)F)C2)c2ccccc12)NCC1CC1 (centres unmarked) [Compound 56]	20% or less feeding damage or 80% or more mortality	20% or less feeding damage or 80% or more mortality
